According to US8937176B2, “Compounds” (Boehringer Ingelheim International GmbH, priority 2011, dated 2015):

target: T1, human recombinant mGluR5 (Homo sapiens, UniProt P41594); experiment: Positive modulation of mGluR5, calcium based FLIPR assay in HEK 293 cells; settings: EC50 of the modulation; HEK 293 cell line expressing human recombinant mGluR5; glutamate at approximately 5% basal stimulation; peak height of Ca release fluorescence signal
T1 construct: expressed in transfected cells; host or cells: HEK 293 cell line
T1 sequence (P41594 21-1212): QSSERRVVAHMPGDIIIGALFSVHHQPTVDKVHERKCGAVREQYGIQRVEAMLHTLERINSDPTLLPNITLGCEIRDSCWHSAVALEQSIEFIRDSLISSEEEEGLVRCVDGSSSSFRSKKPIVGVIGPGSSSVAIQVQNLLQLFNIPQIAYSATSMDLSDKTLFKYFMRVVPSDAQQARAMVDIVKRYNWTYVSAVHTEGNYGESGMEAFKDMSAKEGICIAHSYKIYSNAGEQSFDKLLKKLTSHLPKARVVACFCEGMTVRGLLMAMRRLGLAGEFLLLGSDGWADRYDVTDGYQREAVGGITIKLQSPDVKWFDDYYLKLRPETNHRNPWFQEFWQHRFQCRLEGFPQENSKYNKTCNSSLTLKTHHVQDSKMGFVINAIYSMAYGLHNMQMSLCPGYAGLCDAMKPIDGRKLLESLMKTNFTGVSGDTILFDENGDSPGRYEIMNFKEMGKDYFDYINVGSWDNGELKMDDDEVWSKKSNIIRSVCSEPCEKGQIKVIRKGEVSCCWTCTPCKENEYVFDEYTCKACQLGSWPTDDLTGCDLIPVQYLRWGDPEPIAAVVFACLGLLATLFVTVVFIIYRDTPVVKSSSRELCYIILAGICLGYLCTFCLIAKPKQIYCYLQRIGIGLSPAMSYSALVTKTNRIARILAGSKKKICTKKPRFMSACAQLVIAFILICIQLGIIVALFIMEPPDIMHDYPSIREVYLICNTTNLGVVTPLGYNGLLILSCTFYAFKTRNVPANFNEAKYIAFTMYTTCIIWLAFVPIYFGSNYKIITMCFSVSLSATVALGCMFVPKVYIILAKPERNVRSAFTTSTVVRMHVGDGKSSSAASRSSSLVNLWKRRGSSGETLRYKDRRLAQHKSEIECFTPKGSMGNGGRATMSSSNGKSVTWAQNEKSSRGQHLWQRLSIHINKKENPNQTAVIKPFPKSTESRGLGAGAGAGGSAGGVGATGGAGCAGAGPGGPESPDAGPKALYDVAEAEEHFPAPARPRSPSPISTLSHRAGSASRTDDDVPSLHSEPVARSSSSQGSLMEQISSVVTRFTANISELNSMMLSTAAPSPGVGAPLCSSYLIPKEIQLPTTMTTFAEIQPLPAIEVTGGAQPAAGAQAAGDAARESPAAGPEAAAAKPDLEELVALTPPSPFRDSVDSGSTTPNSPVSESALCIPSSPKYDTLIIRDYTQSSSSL
Procedure: The positive modulation of mGluR5 is measured in a HEK 293 cell line expressing human recombinant mGluR5 and is detected with calcium based FLIPR assay. The cells are cultured with DMEM supplemented with 10% FCS, 2 μg/mL tetracycline, 100 μg/mL hygromycin and 500 μg/mL gneticin. The cell culture media is exchanged for tetracycline-free cell culture media 3-7 days before the assay. One day before the assay the cell culture medium is exchanged to DMEM without glutamine and phenol red and supplemented with 10% FCS, 100 μg/mL hygromycin and 500 μg/mL geneticin. On the assay day, the medium of the subconfluent cultures is removed and the cells are detached by addition of 2.5 ml EDTA(0.02%) per 175 cm2 culture flask for 1 minute. The cells are resuspend in Ringer solution (140 mM NaCl, 5 mM KCl, 2.5 mM CaCl2, 1.5 mM MgCl2, 5 mM Glucose, 10 mM Hepes; adjusted to pH 7.4 with NaOH), pooled and Ringer solution added to adjust the volume to 50 mL. The cell suspension is centrifuged for […] at 1500 U/min (425 g). The supernatant is removed and the cells washed a second time with 50 ml fresh Ringer solution and centrifuged again as before. The supernatant is again removed and the pellet resuspended in Ringer solution to 1,000,000 cells/ml (1×10^6 cells/mL). The cells are plated onto BD BioCoat Poly-D-Lysine 384 well plates (20.000 cells/well; 20 μl/well). The lid covered plates are then incubated until use at 37° C./10% CO2. For dye loading, 20 μl of Calcium-4 assay kit solution (prepared according to the manufacturer's description in Ringer solution) are added to the cells and the plates are incubated for 80 min 37° C. and then 10 min at room temperature.
Controls, Compound Dilution and Assay Execution:
Each assay plate contained wells with “high” and “low” controls:
Low controls 1% DMSO/ringer solution+basal glutamate activation (defined as 100% CTL).
High controls 10 μM CDPPB+basal glutamate activation (defined as 200% CTL).
Test compounds are dissolved and diluted in DMSO to 100-fold the desired concentrations. In a second step, the compounds are diluted in Ringer solution such that the compounds are 4-fold more concentrated than the desired final assay concentration. The final DMSO concentration was 1%.
20 μl of each compound solution are then transferred to the assay plate and the Ca2+ kinetic is measured to determine any intrinsic compound activity. After 5 min incubation in the FLIPR device, the second stimulation with 20 μl of glutamate in Ringer solution (glutamate concentration adjusted to approximately 5% basal stimulation of the maximal possible glutamate effect) is added and the kinetic Ca2+ response of the wells was measured for the modulation effect.
The peak height of the Ca release related fluorescence signal (9-66) is used for the EC50. The EC50 of the modulation is calculated over a nonlinear regression with GraphPad Prism (Table 1).

| Compound | EC50 [µM] |
| --- | --- |
| COc1cccc(-c2cn(-c3ccc(F)cc3)c(CC(=O)N3CCN(c4ccccn4)CC3)n2)c1 [Example 7.04.41.] | 0.092 |
| Cc1cc(-c2cn(-c3ccccc3)c(CC(=O)N3CCN(c4ccccn4)CC3)n2)ccc1F [Example 7.04.42.] | 0.024 |
| COc1cc(N2CCN(C(=O)Cc3nc(-c4ccc(F)c(C)c4)cn3-c3ccccc3)CC2)ncn1 [Example 7.04.43.] | 0.019 |
| Cc1cc(-c2cn(-c3ccccc3)c(CC(=O)N3CCN(c4ncccn4)CC3)n2)ccc1F [Example 7.04.44.] | 0.011 |
| COc1ccnc(N2CCN(C(=O)Cc3nc(-c4ccc(F)c(C)c4)cn3-c3ccccc3)CC2)c1 [Example 7.04.45.] | 0.028 |
| COc1cnc(N2CCN(C(=O)Cc3nc(-c4ccc(F)c(C)c4)cn3-c3ccccc3)CC2)nc1 [Example 7.04.46.] | 0.021 |
| CCn1cc(-c2ccc(F)c(C)c2)nc1CC(=O)N1CCN(c2ncccn2)CC1 [Example 7.05.01, 2-(1-Ethyl-4-(4-fluoro-3-methyl-phenyl)-1H-imidazol-2-yl)-1-(4-pyrimidin-2-yl-piperazin-1-yl)-ethanone] | 0.174 |
